For assay [1], the target named is T1, recombinant human Seprase (rhuSeprase) (Homo sapiens, UniProt Q12884).
T1 construct: named pCEP4-IgKappa-huSeprase-coCHO_26-760aa-H6 and used for the generation of recombinant soluble human Seprase (rhuSeprase); mouse Ig kappa-chain V-J2-C secretion signal (N, cleaved yes); made in house; host or cells: FreeStyle CHO-S cells (transient transfection; purified from supernatant by Ni-chelate and SEC)
T1 sequence (Q12884 26-760): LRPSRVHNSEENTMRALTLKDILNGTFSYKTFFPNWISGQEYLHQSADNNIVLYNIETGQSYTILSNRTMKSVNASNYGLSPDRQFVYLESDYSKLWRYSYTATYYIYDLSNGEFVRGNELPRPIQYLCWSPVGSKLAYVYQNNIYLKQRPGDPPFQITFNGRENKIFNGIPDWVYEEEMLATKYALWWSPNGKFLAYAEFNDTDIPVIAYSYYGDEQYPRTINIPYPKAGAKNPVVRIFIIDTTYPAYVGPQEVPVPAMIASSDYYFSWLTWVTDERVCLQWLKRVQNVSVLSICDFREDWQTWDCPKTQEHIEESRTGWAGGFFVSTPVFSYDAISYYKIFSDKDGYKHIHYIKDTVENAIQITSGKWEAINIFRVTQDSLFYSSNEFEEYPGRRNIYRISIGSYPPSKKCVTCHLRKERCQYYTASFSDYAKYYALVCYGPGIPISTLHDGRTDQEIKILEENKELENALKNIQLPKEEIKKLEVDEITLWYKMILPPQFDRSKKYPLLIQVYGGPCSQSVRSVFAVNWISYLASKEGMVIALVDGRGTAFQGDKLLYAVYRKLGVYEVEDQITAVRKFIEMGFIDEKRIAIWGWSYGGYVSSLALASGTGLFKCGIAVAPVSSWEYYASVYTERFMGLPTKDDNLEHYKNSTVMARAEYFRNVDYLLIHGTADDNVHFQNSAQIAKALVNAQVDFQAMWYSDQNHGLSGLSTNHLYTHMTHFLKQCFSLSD
The assay can be described thus: Surface plasmon resonance (Biacore T100) on immobilized rhuSeprase. Format: binding. The settings on record: for kon: read-out: ka (1/Ms).

Another assay concerns the target T2, DPP IV (Homo sapiens, UniProt P27487).
T2 construct: purchased R&D Systems
It is filed as binding.

The target of assay [2] is T3, murine Seprase expressing tumor cells (CAFs in CT26 tumor sections) (Mus musculus, UniProt P97321).
T3 construct: from tissue; host or cells: paraffin sections of subcutaneous CT26 tumors grown in BALB/c mice (stromal CAFs)
T3 sequence (P97321 1-761): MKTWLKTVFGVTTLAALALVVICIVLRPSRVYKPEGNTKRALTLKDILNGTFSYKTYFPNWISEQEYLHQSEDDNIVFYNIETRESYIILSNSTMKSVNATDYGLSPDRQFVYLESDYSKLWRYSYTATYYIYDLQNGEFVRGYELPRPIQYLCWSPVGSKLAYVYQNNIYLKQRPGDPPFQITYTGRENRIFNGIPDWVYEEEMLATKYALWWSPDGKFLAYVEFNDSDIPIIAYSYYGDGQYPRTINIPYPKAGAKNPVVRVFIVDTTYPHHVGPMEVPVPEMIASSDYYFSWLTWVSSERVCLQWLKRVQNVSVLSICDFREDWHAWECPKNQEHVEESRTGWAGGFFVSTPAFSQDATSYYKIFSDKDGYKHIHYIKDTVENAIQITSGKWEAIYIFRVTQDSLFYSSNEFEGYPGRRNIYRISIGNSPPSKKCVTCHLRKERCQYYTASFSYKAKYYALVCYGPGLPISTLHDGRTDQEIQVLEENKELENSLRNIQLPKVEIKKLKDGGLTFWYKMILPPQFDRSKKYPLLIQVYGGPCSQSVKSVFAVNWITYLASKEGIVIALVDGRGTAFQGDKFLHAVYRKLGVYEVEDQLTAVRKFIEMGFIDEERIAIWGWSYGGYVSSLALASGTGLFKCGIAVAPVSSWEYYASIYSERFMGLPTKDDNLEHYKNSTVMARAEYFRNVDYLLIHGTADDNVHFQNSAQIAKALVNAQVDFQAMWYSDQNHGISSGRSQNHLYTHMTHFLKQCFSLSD
The assay can be described thus: Staining of paraffin sections of CT26 tumors.

For assay [3], the target named is T4, murine homologue of Seprase (Mus musculus, UniProt P97321).
T4 construct: expressed in transfected cells; host or cells: CHO-K1
T4 sequence (P97321 1-761): T3 sequence (P97321 1-761)
It is filed as cell-based.

Assay [4] addresses T5, human Seprase (Homo sapiens, UniProt Q12884).
T5 sequence (Q12884 26-760): T1 sequence (Q12884 26-760)

Assay [5] concerns the target T5, human Seprase. It is filed as binding. Set-up: named pCEP4-IgKappa-huSeprase-coCHO_26-760aa-H6 and used for the generation of recombinant soluble human Seprase (rhuSeprase); mouse Ig kappa-chain V-J2-C secretion signal (N, cleaved yes); made in house; host or cells: FreeStyle CHO-S cells (transient transfection; purified from supernatant by Ni-chelate and SEC).

This is an account of results in patent publication US10370433B2, “Compositions and methods for diagnosis and treatment of cancer” (BIONTECH AG, priority 2015, dated 2019).

Positions of bridges follow the written chain, without caps; N, C: chain ends. Residues, ends and D or L forms follow the SMILES beside them.

T2 sequence (P27487 whole entry): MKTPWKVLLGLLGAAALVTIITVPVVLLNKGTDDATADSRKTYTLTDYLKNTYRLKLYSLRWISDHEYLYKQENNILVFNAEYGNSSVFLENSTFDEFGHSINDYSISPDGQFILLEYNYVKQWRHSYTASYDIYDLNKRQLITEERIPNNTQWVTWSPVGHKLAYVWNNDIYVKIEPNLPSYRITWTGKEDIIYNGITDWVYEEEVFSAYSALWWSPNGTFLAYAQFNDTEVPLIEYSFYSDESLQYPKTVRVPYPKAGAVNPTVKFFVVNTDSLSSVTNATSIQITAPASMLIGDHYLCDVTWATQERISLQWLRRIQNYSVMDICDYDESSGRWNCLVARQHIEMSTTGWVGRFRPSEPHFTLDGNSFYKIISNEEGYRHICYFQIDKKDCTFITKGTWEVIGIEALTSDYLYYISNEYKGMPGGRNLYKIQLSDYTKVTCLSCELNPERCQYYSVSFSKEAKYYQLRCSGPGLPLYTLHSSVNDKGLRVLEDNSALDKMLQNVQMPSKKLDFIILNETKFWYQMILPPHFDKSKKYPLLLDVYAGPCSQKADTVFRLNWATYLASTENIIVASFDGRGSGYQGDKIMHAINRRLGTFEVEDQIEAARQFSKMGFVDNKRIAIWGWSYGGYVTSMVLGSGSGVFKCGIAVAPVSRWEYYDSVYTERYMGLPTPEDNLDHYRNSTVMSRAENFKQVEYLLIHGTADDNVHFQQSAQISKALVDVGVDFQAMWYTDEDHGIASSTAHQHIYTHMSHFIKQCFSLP

Regarding `CC[C@H](C)[C@@H]1NC(=O)[C@@H]2CSSC[C@H](NC(=O)[C@H](C)NC(=O)CNC(=O)[C@H](CO)NC(=O)CN)C(=O)N3CCC[C@H]3C(=O)N[C@@H](Cc3ccc(O)cc3)C(=O)N[C@@H](CO)C(=O)N[C@@H](CC(N)=O)C(=O)N[C@@H](Cc3c[nH]c4ccccc34)C(=O)N[C@@H](C)C(=O)N[C@@H](C(C)C)C(=O)NCC(=O)N[C@@H](CCCNC(=N)N)C(=O)NCC(=O)N3CCC[C@H]3C(=O)N[C@@H](CO)C(=O)N[C@H]3CSSC[C@H](NC1=O)C(=O)N[C@@H](CCCNC(=N)N)C(=O)NCC(=O)N[C@@H](CC(N)=O)C(=O)NCC(=O)N[C@@H](Cc1ccc(O)cc1)C(=O)N[C@H](C(=O)NCC(=O)O)CSSC[C@H](NC(=O)[C@H](CC(=O)O)NC(=O)[C@H](CO)NC(=O)[C@H](CC(=O)O)NC(=O)[C@H](CCCNC(=N)N)NC(=O)[C@H](CCCNC(=N)N)NC3=O)C(=O)N1CCC[C@H]1C(=O)NCC(=O)N[C@@H](CCCNC(=N)N)C(=O)N2` [FA8-F04] (H-GSGACPYSNWAVGRGPSCRRDSDCPGRCICRGNGYCG-OH; disulfide 5-28, 18-30, 24-36; N-terminus and C-terminus assumed), in assay [1], the “kd” value came out at 0.2003 s⁻¹ and the kon worked out at 624000 M⁻¹ s⁻¹.
Consider `CC[C@H](C)[C@@H]1NC(=O)[C@@H]2CSSC[C@H](NC(=O)[C@H](C)NC(=O)CNC(=O)[C@H](CO)NC(=O)CN)C(=O)N3CCC[C@H]3C(=O)N[C@@H](Cc3ccc(O)cc3)C(=O)N[C@@H]([C@@H](C)O)C(=O)N[C@@H](CC(N)=O)C(=O)N[C@@H](Cc3c[nH]c4ccccc34)C(=O)N[C@@H](Cc3c[nH]cn3)C(=O)N3CCC[C@H]3C(=O)NCC(=O)N[C@@H](CCCNC(=N)N)C(=O)NCC(=O)N3CCC[C@H]3C(=O)N[C@@H](C)C(=O)N[C@H]3CSSC[C@H](NC1=O)C(=O)N[C@@H](CCCNC(=N)N)C(=O)NCC(=O)N[C@@H](CC(N)=O)C(=O)NCC(=O)N[C@@H](Cc1ccc(O)cc1)C(=O)N[C@H](C(=O)NCC(=O)O)CSSC[C@H](NC(=O)[C@H](CC(=O)O)NC(=O)[C@H](CO)NC(=O)[C@H](CC(=O)O)NC(=O)[C@H](CCCNC(=N)N)NC(=O)[C@H](CCCNC(=N)N)NC3=O)C(=O)N1CCC[C@H]1C(=O)NCC(=O)N[C@@H](CCCNC(=N)N)C(=O)N2` [FA8-G12] (H-GSGACPYTNWHPGRGPACRRDSDCPGRCICRGNGYCG-OH; disulfide 5-28, 18-30, 24-36; N-terminus and C-terminus assumed), for which, in assay [1], the “kd” value was found to be 0.3171 s⁻¹ and the kon worked out at 651000 M⁻¹ s⁻¹.
On to `CC[C@H](C)[C@@H]1NC(=O)[C@@H]2CSSC[C@H](NC(=O)[C@H](CCCCN)NC(=O)CN)C(=O)N3CCC[C@H]3C(=O)N[C@@H](Cc3ccc(O)cc3)C(=O)N[C@@H](CO)C(=O)N[C@@H](CC(N)=O)C(=O)N[C@@H](Cc3c[nH]c4ccccc34)C(=O)N[C@@H]([C@@H](C)O)C(=O)N3CCC[C@H]3C(=O)NCC(=O)N[C@@H](CCCNC(=N)N)C(=O)NCC(=O)N3CCC[C@H]3C(=O)N[C@@H](CC(=O)O)C(=O)N[C@H]3CSSC[C@H](NC1=O)C(=O)N[C@@H](CCCNC(=N)N)C(=O)NCC(=O)N[C@@H](CC(N)=O)C(=O)NCC(=O)N[C@@H](Cc1ccc(O)cc1)C(=O)N[C@H](C(=O)NCC(=O)O)CSSC[C@H](NC(=O)[C@H](CC(=O)O)NC(=O)[C@H](CO)NC(=O)[C@H](CC(=O)O)NC(=O)[C@H](CCCNC(=N)N)NC(=O)[C@H](CCCNC(=N)N)NC3=O)C(=O)N1CCC[C@H]1C(=O)NCC(=O)N[C@@H](CCCNC(=N)N)C(=O)N2` [MC-FA-010] (H-GKCPYSNWTPGRGPDCRRDSDCPGRCICRGNGYCG-OH; disulfide 3-26, 16-28, 22-34), for which the “binding to DPP IV” value on DPP IV is on record as “very weak signal”. Moreover, in assay [1], the “kd” value is 0.2006 s⁻¹ and the kon came to 1.53e+06 M⁻¹ s⁻¹. Moreover, the “binding to CT26 tumor section” value in assay [2] was “binds on CAFs”. The “cross-reactivity with the murine homologue” value in assay [3] is recorded as “cross-reactive”. Besides, the “IC50, binding affinity to human Seprase” value on human Seprase [4] is given as “nanomolar range”. For the same compound, at human Seprase [5], the “EC50, binding affinity to human Seprase” value is “nanomolar range”; the “binding to Seprase” value is “binds strongly and selectively”.
Consider `CC[C@H](C)[C@@H]1NC(=O)[C@@H]2CSSC[C@H](NC(=O)[C@H](C)NC(=O)CN)C(=O)N3CCC[C@H]3C(=O)N[C@@H](Cc3ccc(O)cc3)C(=O)N[C@@H](CO)C(=O)N[C@@H](CC(N)=O)C(=O)N[C@@H](Cc3c[nH]c4ccccc34)C(=O)N[C@@H]([C@@H](C)O)C(=O)N3CCC[C@H]3C(=O)NCC(=O)N[C@@H](CCCNC(=N)N)C(=O)NCC(=O)N3CCC[C@H]3C(=O)N[C@@H](CC(=O)O)C(=O)N[C@H]3CSSC[C@H](NC1=O)C(=O)N[C@@H](CCCNC(=N)N)C(=O)NCC(=O)N[C@@H](CC(N)=O)C(=O)NCC(=O)N[C@@H](Cc1ccc(O)cc1)C(=O)N[C@H](C(=O)NCC(=O)O)CSSC[C@H](NC(=O)[C@H](CC(=O)O)NC(=O)[C@H](CO)NC(=O)[C@H](CC(=O)O)NC(=O)[C@H](CCCNC(=N)N)NC(=O)[C@H](CCCNC(=N)N)NC3=O)C(=O)N1CCC[C@H]1C(=O)NCC(=O)N[C@@H](CCCNC(=N)N)C(=O)N2` [MC-FA-012] (H-GACPYSNWTPGRGPDCRRDSDCPGRCICRGNGYCG-OH; disulfide 3-26, 16-28, 22-34; N-terminus and C-terminus assumed), for which the kon in assay [1] is 408000 M⁻¹ s⁻¹.
In the case of `CC[C@H](C)[C@@H]1NC(=O)[C@@H]2CSSC[C@H](NC(=O)[C@H](C)NC(=O)CNC(=O)[C@H](CO)NC(=O)CN)C(=O)N3CCC[C@H]3C(=O)N[C@@H](Cc3ccc(O)cc3)C(=O)N[C@@H](CO)C(=O)N[C@@H](CC(N)=O)C(=O)N[C@@H](Cc3c[nH]c4ccccc34)C(=O)N[C@@H]([C@@H](C)O)C(=O)N3CCC[C@H]3C(=O)NCC(=O)N[C@@H](CCCNC(=N)N)C(=O)NCC(=O)N3CCC[C@H]3C(=O)N[C@@H](CC(=O)O)C(=O)N[C@H]3CSSC[C@H](NC1=O)C(=O)N[C@@H](CC(C)C)C(=O)N[C@@H](CCC(=O)O)C(=O)N[C@@H](CC(N)=O)C(=O)NCC(=O)N[C@@H](Cc1ccccc1)C(=O)N[C@H](C(=O)NCC(=O)O)CSSC[C@H](NC(=O)[C@H](CC(=O)O)NC(=O)[C@H](CO)NC(=O)[C@H](CC(=O)O)NC(=O)[C@H](CO)NC(=O)[C@H](CO)NC3=O)C(=O)N1CCC[C@H]1C(=O)NCC(=O)N[C@@H](C)C(=O)N2` [MO-FA-012] (H-GSGACPYSNWTPGRGPDCSSDSDCPGACICLENGFCG-OH; disulfide 5-28, 18-30, 24-36; N-terminus and C-terminus assumed), in assay [1], the “kd” value was determined as 0.5128 s⁻¹ and the kon came to 382000 M⁻¹ s⁻¹.
